Inconclusive results and toxic doses are left out. No stated cut-off is given here; in the data, active means T/C of 150% or more; inactive means T/C below 125%. Square brackets hold non-standard residues; d marks the D form. Peptide text beside a SMILES is read from it. * marks the point of attachment. ONb = O=[N+]([O-])c1ccc(CO*)cc1; Cbz = O=C(OCc1ccccc1)*; Nva = CCC[CH](N)C(=O)O; Bn = c1ccc(C*)cc1
Test system: L1210 leukemia ip in BDF1 mice, survival T/C
Assay: NCI In Vivo Anticancer Drug Screen. Data for tumor model L1210 Leukemia (intraperitoneal) in B6D2F1 (BDF1) mice
Settings: endpoint: mean survival time, higher = longer survival
Outline: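 Tumor was transplanted into mice, which were then dosed with test compound or vehicle alone. Survival was recorded for each group, and the treated figure was expressed relative to the control figure.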

[1] = dose: 100.0 mg/kg/injection, schedule: Q01DX009 (ip), vehicle: Klucel (hydroxypropylcellulose) (HPC)
[2] = dose: 200.0 mg/kg/injection, schedule: Q01DX009 (ip), vehicle: Klucel (hydroxypropylcellulose) (HPC)
[3] = dose: 400.0 mg/kg/injection, schedule: Q01DX009 (ip), vehicle: Klucel (hydroxypropylcellulose) (HPC)
[4] = dose: 100.0 mg/kg/injection, schedule: Q04DX003 (ip), vehicle: saline
[5] = dose: 200.0 mg/kg/injection, schedule: Q04DX003 (ip), vehicle: saline
[6] = dose: 100.0 mg/kg/injection, schedule: Q04DX003 (ip), vehicle: Klucel (hydroxypropylcellulose) (HPC)
[7] = dose: 200.0 mg/kg/injection, schedule: Q04DX003 (ip), vehicle: Klucel (hydroxypropylcellulose) (HPC)
[8] = dose: 400.0 mg/kg/injection, schedule: Q04DX003 (ip), vehicle: Klucel (hydroxypropylcellulose) (HPC)
[9] = dose: 50.0 mg/kg/injection, schedule: Q01DX009 (ip), vehicle: saline with Tween-80
[10] = dose: 100.0 mg/kg/injection, schedule: Q01DX009 (ip), vehicle: saline with Tween-80
[11] = dose: 200.0 mg/kg/injection, schedule: Q01DX009 (ip), vehicle: saline with Tween-80
[12] = dose: 100.0 mg/kg/injection, schedule: Q01DX001 (ip), vehicle: other
[13] = dose: 200.0 mg/kg/injection, schedule: Q01DX001 (ip), vehicle: other
[14] = dose: 400.0 mg/kg/injection, schedule: Q01DX001 (ip), vehicle: other

Measured: T/C

CCCCCCCCCCOP(N)(=O)OCCCCCCCCCC
inactive: dose: 25.0 mg/kg/injection, schedule: Q01DX009 (ip), vehicle: carboxymethylcellulose (CMC) 98 % of control | dose: 50.0 mg/kg/injection, schedule: Q01DX009 (ip), vehicle: carboxymethylcellulose (CMC) 104 % of control | dose: 50.0 mg/kg/injection, schedule: Q04DX003 (ip), vehicle: carboxymethylcellulose (CMC) 89 % of control | dose: 100.0 mg/kg/injection, schedule: Q01DX009 (ip), vehicle: carboxymethylcellulose (CMC) 93 % of control | dose: 100.0 mg/kg/injection, schedule: Q04DX003 (ip), vehicle: carboxymethylcellulose (CMC) 94 % of control | dose: 225.0 mg/kg/injection, schedule: Q01DX009 (ip), vehicle: carboxymethylcellulose (CMC) 104 % of control

CC(CNC(=O)CCBr)NC(=O)CCBr (configuration not stated)
active: dose: 200.0 mg/kg/injection, schedule: Q01DX009 (ip), vehicle: saline 153 % of control | dose: 400.0 mg/kg/injection, schedule: Q01DX009 (ip), vehicle: saline 178 % of control
inactive: dose: 50.0 mg/kg/injection, schedule: Q01DX Z (ip), vehicle: carboxymethylcellulose (CMC) 103 % of control | dose: 170.0 mg/kg/injection, schedule: Q01DX Z (ip), vehicle: carboxymethylcellulose (CMC) 100 % of control

CCC#CC(=O)OCCCCCC
inactive: dose: 100.0 mg/kg/injection, schedule: Q04DX002 (ip), vehicle: saline 107 % of control | dose: 200.0 mg/kg/injection, schedule: Q04DX002 (ip), vehicle: saline 100 % of control | dose: 400.0 mg/kg/injection, schedule: Q04DX002 (ip), vehicle: saline 103 % of control

O=P(NCCCl)(NCCCl)c1ccccc1
inactive: dose: 100.0 mg/kg/injection, schedule: Q04DX002 (ip), vehicle: Klucel (hydroxypropylcellulose) (HPC) 118 % of control | dose: 200.0 mg/kg/injection, schedule: Q04DX002 (ip), vehicle: Klucel (hydroxypropylcellulose) (HPC) 100 % of control | dose: 400.0 mg/kg/injection, schedule: Q04DX002 (ip), vehicle: Klucel (hydroxypropylcellulose) (HPC) 96 % of control

CC(C)c1ccc(/C=N/NC(=S)Nc2ccccc2)cc1
inactive: [1] 93 % of control | [2] 93 % of control | [3] 90 % of control

O=S(=O)(/C=C/c1ccccc1)c1ccc(F)cc1
inactive: dose: 100.0 mg/kg/injection, schedule: Q01DX001 (ip), vehicle: acetone 97 % of control | dose: 100.0 mg/kg/injection, schedule: Q01DX009 (ip), vehicle: acetone 88 % of control | dose: 200.0 mg/kg/injection, schedule: Q01DX001 (ip), vehicle: acetone 95 % of control | dose: 400.0 mg/kg/injection, schedule: Q01DX001 (ip), vehicle: acetone 95 % of control

O=C(CCCO)NCCS(=O)c1ccccc1 (configuration not stated)
inactive: dose: 100.0 mg/kg/injection, schedule: Q04DX002 (ip), vehicle: saline with Tween-80 107 % of control | dose: 200.0 mg/kg/injection, schedule: Q04DX002 (ip), vehicle: saline with Tween-80 101 % of control | dose: 400.0 mg/kg/injection, schedule: Q04DX002 (ip), vehicle: saline with Tween-80 111 % of control

O=C1c2ccccc2C(=O)N1OCCCCCCON1C(=O)c2ccccc2C1=O
inactive: [4] 92 % of control | [5] 94 % of control | dose: 400.0 mg/kg/injection, schedule: Q04DX003 (ip), vehicle: saline 97 % of control

O=C(Nc1ccc([N+](=O)[O-])cc1Cl)SCCSC(=O)Nc1ccc([N+](=O)[O-])cc1Cl
inactive: [1] 114 % of control | [2] 94 % of control | [3] 105 % of control

O=c1oc2cccc(O)c2c2c1CCCC2
inactive: [1] 95 % of control | [6] 97 % of control | [2] 90 % of control | [7] 95 % of control | [3] 90 % of control | [8] 93 % of control

Nc1nc(N)nc(C(=O)Cc2ccccc2)n1
inactive: [9] 108 % of control | [10] 101 % of control | [11] 94 % of control

CC(Cl)C(=O)NC(C)C(=O)O (configuration not stated)
inactive: dose: 12.5 mg/kg/injection, schedule: Q04DX002 (ip), vehicle: saline 97 % of control | dose: 25.0 mg/kg/injection, schedule: Q04DX002 (ip), vehicle: saline 111 % of control | dose: 50.0 mg/kg/injection, schedule: Q04DX002 (ip), vehicle: saline 97 % of control

CC(=O)OC1CCC2(C)C(CCC3C2CCC2(C)C(C(C)CCO)CCC32)C1 (configuration not stated)
inactive: dose: 100.0 mg/kg/injection, schedule: Q04DX003 (sc), vehicle: steriod suspending solution 95 % of control | dose: 200.0 mg/kg/injection, schedule: Q04DX003 (sc), vehicle: steriod suspending solution 104 % of control | dose: 400.0 mg/kg/injection, schedule: Q04DX003 (sc), vehicle: steriod suspending solution 100 % of control

C=CCSC(C)CC (configuration not stated)
inactive: [9] 95 % of control | [10] 101 % of control | dose: 100.0 mg/kg/injection, schedule: Q04DX003 (ip), vehicle: saline with Tween-80 96 % of control | [11] 92 % of control | dose: 200.0 mg/kg/injection, schedule: Q04DX003 (ip), vehicle: saline with Tween-80 96 % of control

CC1C(c2ccccc2)N1P(=O)(c1ccccc1)c1ccccc1 (configuration not stated)
inactive: dose: 100.0 mg/kg/injection, schedule: Q04DX003 (sc), vehicle: carboxymethylcellulose (CMC) 102 % of control | dose: 200.0 mg/kg/injection, schedule: Q04DX003 (sc), vehicle: carboxymethylcellulose (CMC) 104 % of control | dose: 400.0 mg/kg/injection, schedule: Q04DX003 (sc), vehicle: carboxymethylcellulose (CMC) 98 % of control

O=C1NC(=O)C2C3CCC(C12)C3C(c1ccccc1)c1ccccc1 (configuration not stated)
inactive: dose: 100.0 mg/kg/injection, schedule: Q01DX001 (ip), vehicle: carboxymethylcellulose (CMC) 106 % of control | dose: 200.0 mg/kg/injection, schedule: Q01DX001 (ip), vehicle: carboxymethylcellulose (CMC) 95 % of control | dose: 400.0 mg/kg/injection, schedule: Q01DX001 (ip), vehicle: carboxymethylcellulose (CMC) 103 % of control

CC(=O)Nc1ccc(NC(=O)c2ccc(C(=O)Nc3ccc(NC(C)=O)cc3)cc2)cc1
inactive: [12] 98 % of control | [13] 93 % of control | [14] 96 % of control

N#Cc1c(N)sc(N)c1C#N
inactive: [1] 96 % of control | [6] 100 % of control | [2] 89 % of control | [7] 98 % of control | [3] 96 % of control | [8] 98 % of control

O=C1NCCCN1
inactive: dose: 100.0 mg/kg/injection, schedule: Q04DX003 (ip), vehicle: saline sonified 104 % of control | dose: 200.0 mg/kg/injection, schedule: Q04DX003 (ip), vehicle: saline sonified 102 % of control | dose: 400.0 mg/kg/injection, schedule: Q04DX003 (ip), vehicle: saline sonified 101 % of control

CCCC(NC(=O)C(CSCc1ccccc1)NC(=O)OCc1ccccc1)C(=O)OCc1ccc([N+](=O)[O-])cc1 (configuration not stated) (Cbz-Cys(Bn)-[Nva]-ONb; configuration not given here)
inactive: [12] 90 % of control | [13] 90 % of control | [14] 89 % of control

CNC(C)Cc1ccccc1OC (configuration not stated)
inactive: dose: 25.0 mg/kg/injection, schedule: Q04DX003 (ip), vehicle: saline 103 % of control | dose: 50.0 mg/kg/injection, schedule: Q04DX003 (ip), vehicle: saline 101 % of control | [4] 92 % of control

CCCCN(CCCC)C(=O)CCC
inactive: [4] 102 % of control | [5] 95 % of control

CCCCNc1nc(N)nc2c1nnn2C1OC(CO)C(O)C1O (configuration not stated)
inactive: dose: 100.0 mg/kg/injection, schedule: Q01DX001 (ip), vehicle: saline 107 % of control | dose: 200.0 mg/kg/injection, schedule: Q01DX001 (ip), vehicle: saline 101 % of control | dose: 400.0 mg/kg/injection, schedule: Q01DX001 (ip), vehicle: saline 107 % of control

O=C(C[n+]1cccc(CO)c1)c1ccc(-c2ccc(C(=O)C[n+]3cccc(CO)c3)cc2)cc1
inactive: dose: 0.05 mg/kg/injection, schedule: Q04DX003 (ip), vehicle: saline 105 % of control | dose: 0.1 mg/kg/injection, schedule: Q04DX003 (ip), vehicle: saline 100 % of control | dose: 0.2 mg/kg/injection, schedule: Q04DX003 (ip), vehicle: saline 108 % of control

O=C1OCCOC1=O
inactive: dose: 75.0 mg/kg/injection, schedule: Q01DX001 (ip), vehicle: other 90 % of control | dose: 150.0 mg/kg/injection, schedule: Q01DX001 (ip), vehicle: other 95 % of control | dose: 300.0 mg/kg/injection, schedule: Q01DX001 (ip), vehicle: other 95 % of control
